From US11760733B2, “Small molecule regulators of mitochondrial fusion and methods of use thereof” (Washington University, priority 2017, dated 2023)
“Also recorded” adds a separate entry of the source.

Experiments:
Mfn2 null MEFs = test: Mitochondrial elongation (aspect ratio) fusogenicity assay; assay type: cell-based, mouse
From the text: A cultured murine embryonic fibroblast assay system was used in which mitochondrial elongation (an increase in aspect ratio) reflects enhanced mitochondrial fusion.
A pharmacophore model was generated based on the interactions of HR1 and HR2 domains in the calculated structural model of Mfn2 in the closed conformation. The key features included hydrophobic interactions involving Mfn2 HR1: Val372 and Met376, and aromatic interactions and hydrogen bonding involving Mfn2 HR1 His380. […] A library comprising ˜14 million commercially available compounds was prepared in silico and evaluated using PHASE to fit these criteria. Top ranked hits were clustered, and filtered based on pharmacological properties using Qikprop. The top 55 (see TABLE 4) commercially available small molecules conforming to the model were selected for functional screening and purchased in 1 mg aliquots. Each compound was dissolved to a stock concentration of 10 mM in DMSO and applied to Mfn2 null MEFs overnight at a final concentration of 1 mM. […] Images were acquired by confocal microscopy. Each compound was scored for fusogenicity (see e.g., FIG. 24A) and % cell death (see e.g., FIG. 24B).
Wild-type MEFs were prepared from E10.5 c57/bl6 mouse embryos. […] MEFs were subcultured in DMEM (4.5 g/L glucose) plus 10% fetal bovine serum, 1× nonessential amino acids, 2 mM L-glutamine, 100U/ml penicillin and 100 ug/ml streptomycin.
Cells were excited with 408 nm (Hoechst), […] (MitoTracker Green and Calcein AM, GFP), or 637 nm (TMRE, MitoTracker Orange, Ethidium homodimer-1, and AF594-Dextran) laser diodes. For mitochondrial elongation studies mitochondrial aspect ratio (long axis/short axis) was calculated using automated edge detection and Image J software. Mitochondrial depolarization was calculated as % of green mitochondria visualized on MitoTracker Green and TMRE merged images, expressed as green/(green+yellow mitochondria)×100.

[1] = Liver microsome stability; assay type: in vitro ADME, human
Experimental: (§1) Plasma protein binding was measured using equilibrium dialysis; % bound=(1−[free compound in dialysate]/[total compound in retentate])×100. Plasma stability of […] compound in clarified freeze-thawed plasma was assessed by LC-MS/MS of supernatants after protein precipitation; 120 min data are reported for studies including 0, 10, 30, 60, and 120 min. Microsome stability of […] compound in liver microsomes (0.5 mg/ml) after 0, 5, 10, 20, 30, 60 min. incubation was assessed by LC/MS/MS of reaction extracts.

[2] = Parallel artificial membrane permeability assay (PAMPA); assay type: in vitro ADME
P-gp/MDR1 = P-gp/MDR1 (Homo sapiens, UniProt P08183); test: P-gp/MDR1 transport; assay type: in vitro ADME
Chain of P-gp/MDR1 (P08183 whole entry): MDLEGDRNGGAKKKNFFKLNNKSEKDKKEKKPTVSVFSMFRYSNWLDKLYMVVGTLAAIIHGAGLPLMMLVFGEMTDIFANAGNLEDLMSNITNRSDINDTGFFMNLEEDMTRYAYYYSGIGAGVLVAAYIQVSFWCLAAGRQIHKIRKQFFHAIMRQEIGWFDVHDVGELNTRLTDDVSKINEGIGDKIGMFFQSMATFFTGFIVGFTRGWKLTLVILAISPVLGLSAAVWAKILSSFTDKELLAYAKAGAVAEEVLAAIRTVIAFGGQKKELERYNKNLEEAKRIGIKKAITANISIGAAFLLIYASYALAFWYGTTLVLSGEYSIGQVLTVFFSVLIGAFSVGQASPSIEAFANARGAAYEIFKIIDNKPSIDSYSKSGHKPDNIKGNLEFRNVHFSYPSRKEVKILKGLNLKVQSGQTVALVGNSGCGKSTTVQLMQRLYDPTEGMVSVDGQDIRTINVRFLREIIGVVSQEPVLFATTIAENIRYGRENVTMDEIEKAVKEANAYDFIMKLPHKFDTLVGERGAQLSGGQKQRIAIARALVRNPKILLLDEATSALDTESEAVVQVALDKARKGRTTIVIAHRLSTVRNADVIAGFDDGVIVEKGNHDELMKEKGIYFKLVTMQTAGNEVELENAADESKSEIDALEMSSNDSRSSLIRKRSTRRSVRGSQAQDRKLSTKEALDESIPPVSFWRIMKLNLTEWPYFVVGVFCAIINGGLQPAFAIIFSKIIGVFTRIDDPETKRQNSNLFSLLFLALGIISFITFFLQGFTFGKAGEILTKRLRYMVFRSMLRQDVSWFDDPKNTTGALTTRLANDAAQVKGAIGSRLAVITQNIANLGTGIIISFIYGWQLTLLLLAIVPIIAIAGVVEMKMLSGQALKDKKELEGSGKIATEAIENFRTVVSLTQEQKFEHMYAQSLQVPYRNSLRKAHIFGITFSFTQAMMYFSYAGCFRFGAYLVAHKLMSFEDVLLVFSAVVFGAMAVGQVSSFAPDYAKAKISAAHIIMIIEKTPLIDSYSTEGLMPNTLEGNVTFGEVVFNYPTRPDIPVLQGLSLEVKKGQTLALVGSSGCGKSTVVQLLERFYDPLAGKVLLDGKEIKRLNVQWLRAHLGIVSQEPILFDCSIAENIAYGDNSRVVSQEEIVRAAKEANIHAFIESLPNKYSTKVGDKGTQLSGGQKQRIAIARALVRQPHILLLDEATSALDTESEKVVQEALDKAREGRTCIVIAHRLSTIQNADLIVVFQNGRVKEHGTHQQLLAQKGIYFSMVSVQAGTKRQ

[3] = In vivo pharmacokinetics in mice; design: species or system mouse; conditions: 2 hours after IM administration, 1 mg/kg
Experimental: (A) Three mice each were administered 1 mg/kg agonist IV, IP, or IM. Graphs are mean plasma concentration for each administration route. (B) Results for individual mice were administered 1 mg/kg indicated agonist IM.

CMT2A MFN2 T105M mice = test: In vivo sciatic nerve mitochondrial motility in CMT2A mice; design: species or system mouse; conditions: IM 2 mg/kg twice, assessed 4 hours later
Experimental: Sciatic nerve mitochondrial motility was measured 4 hours later. Results described in FIG. 58 are for 2 CMT2A mice per group.

[4] = system: MFN2 T105M sciatic nerves; test: Sciatic nerve axonal mitochondrial motility, agonist applied to nerve; conditions: MFN2 T105M mouse sciatic nerve
Experimental: Sciatic nerves of 12-18 week old male or female MFN2 T105M mice were removed en bloc with the lumbar spine and axotomy at the tibial nerve, stained with TMEM ([…]) for 30 minutes in prewarmed Neurobasal Medium without phenol red (Thermo Fisher Scientific) at room temperature, washed, and maintained on the stage of a Nikon A1Rsi Confocal Microscope at 37 degrees C. for time-lapse confocal studies. Images were acquired with a 40× oil immersion objective at 1 frame every 5 or 10 seconds for sequential 10 minute periods. Mitofusin agonist chimera B-A/I was added after the first 10 minute imaging period (final concentrations of […]) and nerve axons imaged for another 40 minutes. Because there was no difference in mitochondrial trafficking or response to mitofusin agonist between male and female mice, the data were combined.

[5] = Solubility in 50 mM phosphate buffer pH 7.4; assay type: physicochemical
Plasma stability = assay type: in vitro ADME
Experimental: as §1

[6] = system: Mfn1/Mfn2 double null MEFs; test: Mitochondrial elongation in Mfn1/Mfn2 double null MEFs; assay type: cell-based, mouse
[7] = system: MFN2 Asp378 and Ala378 mutants; test: Mitochondrial fusion in cells expressing MFN2 Ser378 mutants; assay type: cell-based, human; conditions: phosphomimic Asp378 vs nonphosphorylatable Ala378
From the text: On the basis of fluorescence resonance energy transfer (FRET) analysis of MFN2 labeled at the N and C termini, mitofusin agonists promoted an open MFN2 conformation favoring mitochondrial fusion, with a rank order paralleling that for HR2 binding and mitochondrial fusion (see e.g., FIG. 11G; compare to FIG. 11B and FIG. 11C), supporting allosteric activation.
Human Mfn2 Ser378 was mutated to Ala or Asp by site-directed mutagenesis using the QuikChange Lightning kit (Agilent Technologies Inc.) and primers: […]
Mfn2 and its mutants were sub-cloned into adenoviral vector Type 5 (dE1/E3) with RGD-fiber modification (Vector Biolabs) using BamHI/XhoI. All constructs were verified by Sanger DNA sequencing. Adeno-viral PINK1 was purchased from Vector Biolabs.

Mfn2 HR2 target peptide = target: T1, Mfn2 HR2 target peptide (Homo sapiens, UniProt O95140); test: HR1 peptide-HR2 target binding assay; conditions: in vitro binding assay devoid of cellular kinases
T1 construct: Gly linker (GGGG after the His tag)
T1 sequence (O95140 with tags, fused parts or gaps limits assumed): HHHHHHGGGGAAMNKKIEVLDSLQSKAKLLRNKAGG
From the text: The Mfn-derived fusion-promoting and -inhibiting mini-peptides (simulated to obtain the chemical Mfn agonists in TABLE 1 and TABLE 2) were modified from amino acid heptad repeats (HR) in the HR1 domain and predicted to interact with their counterparts in the carboxyl terminus HR2 domain within the Mfn stalk region (see e.g., FIG. 1, top panel). A high-throughput binding assay was designed whereby the target HR2 peptide sequences, modified to include amino terminal 6×His tags and Gly linkers, were bonded to Ni-chelate resin (20 μg/ml) and used as immobilized “receptor” for amino-FITC-tagged Mfn2 374-384 (agonist ligand) in which the Ser analogous to Ser378 was replaced with Asp to confer the negative charge essential for activity. For antagonist studies the ligand was amino-FITC-tagged Mfn2 406-418. The FITC peptide ligands are suspended at 1 mM in 30% DMSO, 70% water (to minimize spontaneous aggregation) and diluted into binding buffer (de-ionized water) to a final concentration of 25 μM in the presence or absence of competing compound. Dose-dependent loss of resin-bound FITC signal (485 nm excitation/538 nm emission) measured in a 96 well spectrofluorometer represents binding of compound to its HR2 target (see e.g., FIG. 10, FIG. 11). Either the ligand peptide or the receptor peptide can be modified to represent mutations, variations, or posttranslational modifications of Mfn2. […]
Target HR2 peptide sequence modified to include amino terminal 6×His tags and Gly linkers, were bonded to Ni-NTA resin (4.4 μg/ml) (Quiagen) and used as immobilized “receptor” for amino-FITC-tagged Mfn2 374-384 (ligand) in which the Ser analogous to Ser378 was replaced with Asp to confer the negative charge essential for activity. […] Resin-bound FITC signal (485 nm excitation/538 nm emission) measured in a 96 well spectrofluorometer (Spectramax M5e, Molecular Devices) represented binding to HR2 target. Competition binding isotherms were plotted and IC50 values calculated using Prism 7 (Graph Pad).

**Q.** Which results are given for Cn1c(SCC(=O)Nc2sc3c(c2C(N)=O)CCC3)nnc1-c1ccccc1 [1-61, 2-{2-[(4-methyl-5-phenyl-4H-1,2,4-triazol-3-yl)sulfanyl]acetamido}-4H,5H,6H-cyclopenta[b]thiophene-3-carboxamide]?
**A.** potency relative to other compounds, in words (Mfn2 null MEFs): more potent; liver microsome stability, in words [1]: greater resistance to liver microsomal degradation

**Q.** Which “potency relative to other compounds, in words” value (Mfn2 null MEFs) does the source give for CCn1c(SCC(=O)Nc2sc3c(c2C(N)=O)CCC3)nnc1C1CC1 [1-G11, 2-{2-[(5-cyclopropyl-4-ethyl-4H-1,2,4-triazol-3-yl)sulfanyl]acetamido}-4H,5H,6H-cyclopenta[b]thiophene-3-carboxamide] here?
**A.** The value was “more potent”.

**Q.** What about the “liver microsome stability, in words” value [1] of the same compound?
**A.** Its value is “greater resistance to liver microsomal degradation”.

**Q.** For CCn1c(CCCNC(=O)NC2CCOCC2)nnc1C1CC1 [Mitolityn-4, 1-(3-(5-cyclopropyl-4-ethyl-4H-1,2,4-triazol-3-yl)propyl)-3-(tetrahydro-2H-pyran-4-yl)urea], which “potency relative to other compounds, in words” value (Mfn2 null MEFs) is on record?
**A.** The value was “highest potency”.

**Q.** What about the “liver microsome stability, in words” value [1] of the same compound?
**A.** The value was “stability in the liver microsome assay”.

**Q.** And the “passive diffusion across lipid-infused artificial membrane (PAMPA), in words” value [2]?
**A.** The value was “no passive diffusion across lipid membrane”.

**Q.** What about the “P-gp/MDR1 transport, in words” value (P-gp/MDR1) of the same compound?
**A.** Its value is “no reverse transport by P-gp”.

**Q.** With Cn1c(CCCNC(=O)NC2CCOCC2)nnc1C1CC1 [Mitolityn-6, 1-(3-(5-cyclopropyl-4-methyl-4H-1,2,4-triazol-3-yl)propyl)-3-(tetrahydro-2H-pyran-4-yl)urea] as the compound, how does the “potency relative to other compounds, in words” value (Mfn2 null MEFs) read?
**A.** The value was “highest potency”.

**Q.** What about the “liver microsome stability, in words” value [1] of the same compound?
**A.** The value was “stability in the liver microsome assay”.

**Q.** Which “passive diffusion across lipid-infused artificial membrane (PAMPA), in words” value [2] does the source give for CC1CCCCC1NC(=O)NCCCc1nnc(C2CC2)n1-c1ccccc1 (centres unmarked) [Regeneurin-C, 1-(3-(5-cyclopropyl-4-phenyl-4H-1,2,4-triazol-3-yl)propyl)-3-(2-methylcyclohexyl)urea] here?
**A.** The value was “excellent passive diffusion”.

**Q.** What about the “P-gp/MDR1 transport, in words” value (P-gp/MDR1) of the same compound?
**A.** Its value is “actively transported by P-gp/MDR1”.

**Q.** And the “total plasma drug concentration” value [3]?
**A.** Its value is “undetectable”.

**Q.** Which “sciatic nerve axon mitochondrial motility in vivo” value (CMT2A MFN2 T105M mice) does the source give for O=C(NCCCc1nnc(C2CC2)n1-c1ccccc1)NC1CCOCC1 [Regeneurin-C/O, 1-(3-(5-cyclopropyl-4-phenyl-4H-1,2,4-triazol-3-yl)propyl)-3-(tetrahydro-2H-pyran-4-yl)urea] here?
**A.** Its value is “corrects CMT2A neuronal mitochondrial dymotility in vivo; also recorded: reverses the characteristic mitochondrial immobility in sciatic nerve axons”.

**Q.** For CC1CCCCC1NC(=O)NCCSc1nnc(C2CC2)n1-c1ccccc1 (centres unmarked) [Regeneurin-S], which “sciatic nerve axonal mitochondrial motility” value [4] is on record?
**A.** The value was “rapidly correct mitochondrial dysmotility”.

**Q.** What about the “solubility, in words” value [5] of the same compound?
**A.** The value was “soluble”.

**Q.** And the “plasma stability, in words” value (Plasma stability)?
**A.** The value was “stable in plasma”.

**Q.** What about the “liver microsome stability, in words” value [1] of the same compound?
**A.** Its value is “rapid degradation; also recorded: rapidly degraded by liver microsomes”.

**Q.** Which results are given for CC1CCCCC1NC(=O)NCCSCc1ccccc1 (centres unmarked) [compound A, 1-[2-(benzylsulfanyl)ethyl]-3-(2-methylcyclohexyl)urea]?
**A.** fusogenic activity (mitochondrial elongation), in words (Mfn2 null MEFs): induced mitochondrial elongation; mitochondrial elongation in absence of both mitofusins [6]: did not occur; selectivity of fusogenic effect for MFN2 Ser378 mutants [7]: specific for the Asp^378 mutant

**Q.** For “Ala^378 minipeptide: MFN2 374-384 minipeptide in which "Ser^378 was substituted (with Ala, Cys, Asn or Gly)": the Ala variant (LIMDALHMAAR; UniProt O95140 374-384, looked up, variant S378A)”, which “binding of minipeptide to HR2 interacting domain” value (Mfn2 HR2 target peptide) is on record?
**A.** The value was “did not”.

**Q.** With “Ser^378 minipeptide: "smallest fusion promoting minipeptide (residues 374 to 384)" of MFN2 HR1, with unsubstituted Ser^378 (LIMDSLHMAAR; UniProt O95140 374-384, looked up, fragment)” as the compound, how does the “binding of minipeptide to HR2 interacting domain” value (Mfn2 HR2 target peptide) read?
**A.** Its value is “did not”.
